These results are taken from patent US5843941A, “Ras farnesyl transferase inhibitors” (Genentech, Inc., priority 1994, dated 1998).

Experiment [1] relates to H-ras(Val12)-transformed rat-1 fibroblasts (rat 2.2 cells). The experiment can be described thus: Changes in morphology of H-ras-transformed cells. The format is cell-based. The conditions noted are these: 5 days. How it is done:
Compound 27A (denoted as BG269A in the figure) and compound 27B (denoted as BG269B in the figure) were added at 250 μM to test whether these compounds would induce reversion to a more normal phenotype as had been previously shown with microinjection of anti-Ras antibodies (see Feramisco, J. R. et al Nature 314, 639 (1985)). The H-ras transformed cells, denoted as rat 2.2 cells, were generated by transfection of rat-1 fibroblasts as described (see Seeburg, P. H., Colby, W. W., Capon, D. J., Goeddel, D. V., and Levinson, A. D. Nature 312,71 (1984)). Cells that overgrew the monolayer were extracted and plated onto agar to obtain a cell line displaying a fully transformed phenotype. Untransformed rat-1 fibroblasts and src-transformed rat-1 fibroblasts were also treated. The src-transformed cells were generated by co-transfection of rat-1 fibroblasts with pSV3.Neo.src, a vector containing the gene for src as well as the gene that confers G418 resistance, both under control of SV40 early promoters. G418-resistant cell clones that diplayed a transformed phenotype were used to generate the cell line. On day 0, cells were plated in monolayer culture at 3×10^3 cells per well (24-well plates) in 1 ml DMEM supplemented with 10% FCS, 100 U/ml penicillin, 10 μg/ml streptomycin, 2% DMSO, and 0.5 mM DTT with and without 200 μM inhibitor. On day 3, the cells were refed with the same medium. On day 5, the cells were photographed under contrast at a magnification of 100X. […] This change in morphology is remarkably similar to that seen following injection of anti-ras antibodies into ras-transformed cells (see Feramisco, J. R. et al Nature 314, 639 (1985)). Rat-1 fibroblasts transformed with the src oncogene also grew in a multilayered pattern (FIG. 6C), but this was not affected by compound 27A or compound 27B (FIG. 6D).

In a further experiment the target is CAAX farnesyltransferase (Rattus norvegicus, UniProt Q02293+Q04631). Nature of the experiment: In vitro inhibition of CAAX farnesyltransferase. Also on record: purified to homogeneity from rat brain homogenates; from tissue; host or cells: rat brain; alternatively recombinant enzyme from a baculovirus expression system. The experiment is classed as biochemical. The conditions noted are these: FIG. 1A. In outline:
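Native or recombinant (baculovirus-infected cells, Q-Sepharose purified) farnesyltransferase incubated 30 min at 37 °C. [3H]farnesyl transfer to p21H-ras measured by SDS/trichloroacetic acid precipitation, nitrocellulose filtration and scintillation counting.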

In another experiment the test system is HT-1080 cells. Nature of the experiment: Growth inhibition of human tumor line HT-1080. The experiment is classed as cell-based. Particulars: HT-1080, fibrosarcoma, ras transformed, read-out: % growth inhib. How it is done:
(§1) To examine the effects of farnesyltransferase inhibition on cell growth, three cell lines (ras-transformed rat-1, src-transformed rat-1, and parental rat-1 cells) were seeded (see FIG. 7) at low density and allowed to grow for 10 days in the absence or presence of increasing concentrations of BZA-5B (compound 37). See Example 128 for description of cells. On day 0, cells were plated in monolayer culture at 2×10^3 cells per well (24-well plates) in 1 ml DMEM supplemented with 10% fetal calf serum, 100 U/ml penicillin, 100 μg/ml streptomycin, 0.5 mM DTT, 0.025% DMSO, and the indicated concentration of BZA-5B (compound 37). On days 3 and 7, cells were washed and refed with the same medium. At the time indicated in FIG. 7, cells were harvested by trypsinization and counted in a Coulter counter. Panels A, C, E show the growth rate of each cell line in the absence of inhibitor. Panels B, D, F show the inhibition of growth as a function of concentration of BZA-5B at each time point. […]
(§2) To examine the effects of farnesyltransferase inhibition on the growth of human tumor cell lines, several such lines were treated with 25 μM BZA-5B (compound 37B) using a procedure similar to that described in Example 129 above. Cells were refed with fresh media at days 3 and 6 containing the inhibitor, and were harvested and counted as described above. […]

Another experiment relates to SW-480 cells. The experiment can be described thus: Growth inhibition of human tumor line SW-480. The format is cell-based. The conditions noted are these: SW480, SW-480, colon, ras transformed, read-out: % growth inhib. The protocol: as §1, §2
The next experiment relates to CALU-3 cells. Nature of the experiment: Growth inhibition of human tumor line CALU-3. Particulars: CALU-3, lung, ras transformed, read-out: % growth inhib. The experiment is classed as cell-based. How it is done: as §1, §2
Another experiment relates to MDA-7 cells. The experiment can be described thus: Growth inhibition of human tumor line MDA-7. The experiment is classed as cell-based. Particulars: MDA-7, breast, not ras transformed, read-out: % growth inhib. How it is done: as §1, §2

Sequence of CAAX farnesyltransferase (Q02293 whole entry, one chain of several): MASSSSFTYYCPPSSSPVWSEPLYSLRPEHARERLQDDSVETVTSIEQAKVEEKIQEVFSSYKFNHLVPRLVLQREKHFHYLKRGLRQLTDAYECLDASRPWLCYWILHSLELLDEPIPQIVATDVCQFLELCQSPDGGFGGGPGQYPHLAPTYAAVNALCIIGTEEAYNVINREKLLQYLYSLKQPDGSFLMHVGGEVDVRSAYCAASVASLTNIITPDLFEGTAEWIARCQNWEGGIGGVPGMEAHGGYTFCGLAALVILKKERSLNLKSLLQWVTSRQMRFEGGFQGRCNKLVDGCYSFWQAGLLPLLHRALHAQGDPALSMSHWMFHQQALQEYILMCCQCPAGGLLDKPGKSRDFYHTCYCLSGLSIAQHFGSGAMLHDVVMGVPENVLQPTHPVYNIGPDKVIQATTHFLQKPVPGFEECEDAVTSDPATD

As for `CSCC[C@H](NC(=O)CN1C(=O)C(N(C)C(=O)[C@@H](N)CS)N=C(c2ccccc2)c2ccccc21)C(=O)O` (single isomer, unassigned) [27B], the “effect on transformed phenotype (morphology)” value in experiment [1] (FIG. 6A/6B) was “reversed the transformed phenotype”. Moreover, the “effect on cell density” value in experiment [1] (FIG. 6B) is listed as “grew to lower cell density”. Besides, the IC50 at CAAX farnesyltransferase (recombinant enzyme, read-out: concentration inhibiting recombinant ras CAAX farnesyltransferase by 50%) is 0.26 nM. For the same compound, the “fold lower inhibitory concentration than tetrapeptide CVFM” value on CAAX farnesyltransferase (vs CVFM) is recorded as around 200 fold.
With `COC(=O)[C@H](CCSC)NC(=O)CN1C(=O)C(N(C)C(=O)[C@@H](N)CS)N=C(c2ccccc2)c2ccccc21` (single isomer, unassigned) [37B], the inhibition at 25 µM with HT-1080 cells came to 64%; with SW-480 cells, 45%; with CALU-3 cells it was 52%; in the experiment on MDA-7 cells, 0%.
